According to patent US9855341B2, “Formulations and carrier systems including farnesylthiosalycylic moities” (University of Pittsburgh—Of the Commonwealth System of …, priority 2014, dated 2018):

Tests used:
[1] = mouse, in vivo, iv
Experimental: The blood samples were collected in heparinized tubes at different time points (3 min, 8 min, 15 min, 30 min, 1 h, 2 h, 4 h, 8 h, and 12 h) post-injection. The blood was centrifuged (2,500 rpm, 10 min) and plasma was collected for the analysis. […] Non-compartmental pharmacokinetic analysis was done by WinNonlin. […] At day 1 post-injection, tumor tissues and major organs were collected from the mice. The tissues were weighed and homogenized using Homogenizer PowerGen 500 (Fisher Scientific). […] The solutions were centrifuged (2,500 rpm, 10 min) and the supernatant was used for HPLC measurement.

[2] = Source text: Changes in body weight and mouse survival were monitored daily for two weeks. The MTD was defined as the maximal dose that causes neither greater than 15% of body weight loss nor mouse mortality within two weeks after administration. See Lu, J.; Huang, Y.; Zhao, W.; Marquez, R. T.; Meng, X.; Li, J.; Gao, X.; Venkataramanan, R.; Wang, Z.; Li, S., PEG-derivatized embelin as a nanomicellar carrier for delivery of paclitaxel to breast and prostate cancers. Biomaterials, 34, 1591-600 (2013).
[3] = tested on: human prostate cancer xenograft model (PC-3); test: NIRF optical imaging biodistribution; details: PC-3 xenograft, i.v.
Experimental: Biodistribution and tumor-targeting efficiency of PEG5K-Fmoc-FTS2 micelles were tested in a human prostate cancer xenograft model (PC-3). DiD, a hydrophobic near infrared fluorescence (NIRF) dye with high penetration, low tissue absorption and scattering was loaded into the PEG5K-Fmoc-FTS2 micelles for tissue imaging. […] After last imaging at 96 h post-injection, tumors and major organs were excised for ex vivo imaging.
At indicated times (0.5 h, 6 h, 24 h, 48 h, 72 h and 96 h), the mice were scanned using a Carestream Molecular Imaging System, In vivo Multispectral FX PRO, with the excitation at 630 nm and the emission at 700 nm using a 30 s exposure time. The mice were anesthetized by isoflurane inhalation before each imaging. After 96 h, the mice were euthanized by CO2 overdose. The tumor and major organs were excised for ex vivo imaging.

[4] = tested on: HCT-116 human colon carcinoma cell line; test: In vitro cytotoxicity, HCT-116; assay type: cell-based; details: HCT-116 cells
Source text: Several cancer cell lines were included in the cytotoxicity studies including murine breast cancer cells 4T1.2, human colon carcinoma cell line HCT-116, and two human prostate cancer cell lines PC-3 and DU145. […] A similar result was obtained in human colon cancer cells, HCT-116 as illustrated in FIG. 3B. […] Without limitation to any mechanism, it is likely that FTS is much more readily released from PEG5KFTS2(L) by esterases following intracellular delivery.
Incorporation of an additional disulfide linkage into PEG5K-FTS2(L) led to further improvement in cytotoxicity. […] Without limitation to any mechanism, this observation may, for example, be a result of enhanced intracellular delivery of FTS via PEG5K-S—S-FTS2(L).
The cytotoxicity of drug-free PEG5K-Fmoc-FTS2 and PEG5K-FTS2 micelles was examined in 4T1.2 and HCT-116 tumor cells and compared to free FTS (see FIGS. 12A and 12B, respectively). […] Without limitation to any mechanism, it is likely that the cytotoxicity of PEG-FTS comes from the released FTS following intracellular delivery.
FIGS. 13A-C show the cytotoxicity of TAXOL and PTX formulated in PEG5K-Fmoc-FTS2 micelles in several cancer cell lines.
See Zhang, X.; et al., PEG-farnesylthiosalicylate conjugate as a nanomicellar carrier for delivery of paclitaxel. Bioconjug. Chem., 24, 464-72 (2013). The cytotoxicity of free PEG5K-FTS2, PEG5K-Fmoc-FTS2 and FTS was also examined.

[5] = tested on: 4T1.2 mouse breast cancer cell line; test: In vitro cytotoxicity, 4T1.2; assay type: cell-based; details: 4T1.2 cells
[6] = tested on: PC-3 human prostate cancer cell line; test: In vitro cytotoxicity, PC-3; assay type: cell-based; details: PC-3 cells
Source text: FIG. 9B illustrates cytotoxicity of FTS and FTS-amide in a PC-3 human prostate cancer cell line.
As described above, FTS and derivatives thereof can be used in the carrier agents hereof. In a number of embodiments (for example, for drug delivery), biologically active derivatives of FTS are used. […] Similar results were obtained in our in vitro cytotoxicity study with HCT-116 and PC-3 cancer cell lines (see FIGS. 9A and 9B).

## COc1cccc2c1C(=O)c1c(O)c3c(c(O)c1C2=O)C[C@@](O)(C(=O)CO)C[C@@H]3O[C@H]1C[C@H](N)[C@H](O)[C@H](C)O1 [DOX, doxorubicin]
[1]
  Vd: 7.34 L/kg
[2]; 15 mg DOX/kg
  decrease in the body weight: > 15%
  mortality: death of all treated mice
[2]; dose of 10 mg/kg (DOX)
  tolerability: well tolerated

## CCCCCCCCCCCCCCCCCCN1C(=CC=CC=CC2=[N+](CCCCCCCCCCCCCCCCCC)c3ccccc3C2(C)C)C(C)(C)c2ccccc21.[O-][Cl+3]([O-])([O-])[O-] [free DiD, 1,1′-dioctadecyl-3,3,3′,3′-tetramethylindodicarbocyanine perchlorate]
[3]
  tumor accumulation (NIRF imaging): No obvious tumor accumulation

## CC(C)=CCC/C(C)=C/CC/C(C)=C/CSc1ccccc1C(=O)O [FTS, S-trans, trans-farnesylthiosalicylic acid]
[4]
  cytotoxicity (tumor cell growth inhibition): inhibited the tumor cell growth in a concentration-dependent manner
[5]
  cytotoxicity (tumor cell growth inhibition): inhibited the tumor cell growth in a concentration-dependent manner

## CC(C)=CCC/C(C)=C/CC/C(C)=C/CSc1ccccc1C(N)=O [FTS-amide, S-trans, trans-farnesylthiosalicylic acid amide]
[4]
  cytotoxicity (tumor cell growth inhibition): more effective than the parent compound in inhibiting the tumor cell growth
[6]
  cytotoxicity (tumor cell growth inhibition): more effective than the parent compound in inhibiting the tumor cell growth
